In US12280069B2, “Methods of using human milk oligosaccharides for improving airway respiratory health” (priority 2010, dated 2025):

Key:
[1] = tested on: interleukin 10 (IL-10); assay: IL-10 in peripheral blood mononuclear cells with or without RSV (Example 39); assay type: cell-based, human; conditions: in the presence or absence of RSV; FIGS. 7-10
Protocol: Specifically, either 3′SL or 6′SL is added, at concentrations of 0.1 mg/mL, 0.2 mg/mL, or 0.5 mg/mL to fresh peripheral blood mononuclear cells and incubated at 37° C. in 5% CO2 to pretreat the cells for approximately 24 hours. LNnT is added, at concentrations of 0.1 mg/mL, 0.2 mg/mL, or 1 mg/mL to fresh peripheral blood mononuclear cells and incubated at 37° C. in 5% CO2 to pretreat the cells for approximately 24 hours. Lactose is included as a carbohydrate control. Matched endotoxin unit concentration controls are included to allow differentiation of ingredient effects from inherent low levels of endotoxin. Some variables are then incubated with RSV at a multiplicity of infection (MOI) of 0.1 for approximately 1 hour at 37° C. in 5% in CO2. Uninfected control variables are incubated with medium for approximately 1 hour at 37° C. in 5% CO2. […]
Cytokines are measured in supernatants for each variable at 24 and 48 hours to assess the effects of HMOs on the early immune response to RSV. Cytokines are measured using custom Bio-Plex Human cytokine kits from Bio-Rad. […] A positive correlation exists between RSV clinical disease severity in children (as measured by: length of hospital stay, fever, and number of days supplemental O2 is required) and serum IP-10. […]

[2] = tested on: interferon-inducible protein 10 (IP-10); assay: IP-10 in RSV-infected peripheral blood mononuclear cells (Example 39); assay type: cell-based, human; conditions: for IP-10 level compared with uninfected controls / IP-10 in virus-infected variables: FIGS. 3-6; for IP-10 in virus-infected variables: both donors, 24 hour pretreatment, 0.1-0.5 mg/mL (LNnT 0.1-1 mg/mL); for reduction of inflammation caused by RSV: pretreatment for 24 hours, measured by decrease in IP-10
Protocol: (§1) Specifically, either 3′SL or 6′SL is added, at concentrations of 0.1 mg/mL, 0.2 mg/mL, or 0.5 mg/mL to fresh peripheral blood mononuclear cells and incubated at 37° C. in 5% CO2 to pretreat the cells for approximately 24 hours. LNnT is added, at concentrations of 0.1 mg/mL, 0.2 mg/mL, or 1 mg/mL to fresh peripheral blood mononuclear cells and incubated at 37° C. in 5% CO2 to pretreat the cells for approximately 24 hours. Lactose is included as a carbohydrate control. Matched endotoxin unit concentration controls are included to allow differentiation of ingredient effects from inherent low levels of endotoxin. Some variables are then incubated with RSV at a multiplicity of infection (MOI) of 0.1 for approximately 1 hour at 37° C. in 5% in CO2. Uninfected control variables are incubated with medium for approximately 1 hour at 37° C. in 5% CO2. After approximately one hour, fresh medium alone, or fresh medium containing the appropriate concentration of 3′SL, 6′SL, LNnT, lactose, or endotoxin is added to the appropriate tubes and the cells are incubated for 48 hours at 37° C. in 5% CO2. Supernatants are collected at 24 and 48 hours post-infection.
(§2) Cytokines are measured in supernatants for each variable at 24 and 48 hours to assess the effects of HMOs on the early immune response to RSV. Cytokines are measured using custom Bio-Plex Human cytokine kits from Bio-Rad. Results for interferon-inducible protein 10 (IP-10, also known as CXCL 10) are shown in FIGS. 3 and 4 for 3′SL and 6′SL, and in FIGS. 5 and 6 for LNnT. IP-10 is a CXC chemokine that attracts, binds to and activates the CXCR3 receptor on natural killer cells and memory T cells. IP-10 is expressed by monocytes and a number of other cells, and is induced by interferon. A positive correlation exists between RSV clinical disease severity in children (as measured by: length of hospital stay, fever, and number of days supplemental O2 is required) and serum IP-10. Therefore, a decrease in IP-10 signals a decrease in severity of RSV disease experienced.

[3] = tested on: interleukin 10 (IL-10); assay: IL-10 in PBMCs in the presence or absence of RSV (Example 45); assay type: cell-based, human; conditions: in the presence or absence of RSV (MOI 0.1); for IL-10 response, Donor A and Donor E: 0.1-2.0 mg/mL, FIGS. 20A, 20B; for IL-10 response, Donor B and Donor E: FIGS. 19A, 19B
Protocol: Specifically, 3′SL and 6′SL are added individually at concentrations of 0.1 mg/mL, 0.2 mg/mL, or 0.5 mg/mL or in combination (Combo 1=1 part 3′SL to 1 part 6′SL; and Combo 2=1 part 3′SL to 2 parts 6′SL), at total concentrations of 0.2 mg/mL, 0.4 mg/mL, or 1.0 mg/mL to fresh PBMCs and incubated at 37° C. in 5% CO2 to pretreat the cells for approximately 24 hours. In a separate experiment, LNnT and 2′FL are added individually at concentrations of 0.1 mg/mL, 0.2 mg/mL, 1.0 mg/mL or 2.0 mg/mL to fresh PBMCs and incubated at 37° C. in 5% CO2 to pretreat the cells for approximately 24 hours. Lactose is included as a carbohydrate control. Matched endotoxin unit concentration controls are included to allow differentiation of ingredient effects from inherent low levels of endotoxin. After approximately 24 hours, some variables are then incubated with RSV at a multiplicity of infection (MOI) of 0.1 for approximately 1 hour at 37° C. in 5% in CO2. Uninfected control variables are incubated with medium for approximately 1 hour at 37° C. in 5% CO2. After approximately 1 hour, fresh medium alone or containing the appropriate concentrations of LNnT alone, 2′FL alone, 3′SL or 6′SL individually or in combination, lactose alone, or endotoxin alone is added to the appropriate variables, and the PBMCs were incubated for 48 hours at 37° C. in 5% CO2. Supernatants are collected at 24 and 48 hours post-infection. Cytokines are measured in supernatants for each variable at 24 and 48 hours to assess the effects of HMOs on the early immune response to RSV. Cytokines are measured using custom Bio-Plex Human cytokine kits from Bio-Rad.

[4] = tested on: respiratory syncytial virus (RSV); assay: RSV replication (RSV NS1 copy numbers) in 16HBE lung epithelial cells (Example 42); assay type: cell-based; conditions: RSV MOI 1, FIGS. 13-15
Protocol: Specifically, on Day −1, 16HBE cell monolayers are seeded in sufficient numbers to reach 95-100% confluence in 24 well places by Day 0. On day 0, either 2′FL (in concentrations of 1 μg/mL, 5 μg/mL, 10 μg/mL, 50 μg/mL, 100 μg/mL, 500 μg/mL, and 1000 μg/mL), LNnT (in concentrations of 10 μg/mL, 100 μg/mL, or 1000 μg/mL), or 3′SL (in concentrations of 5 μg/mL, 10 μg/mL, 50 μg/mL, 100 μg/mL, 500 μg/mL, and 1000 μg/mL) is added and incubated for approximately 24 hours at 37° C. in 5% CO2. On day 1, the cell supernatants are removed and the monolayers are incubated with medium alone or medium plus Respiratory Syncytial Virus (RSV) for approximately 1 hour at 37° C. in 5% CO2 at a multiplicity of infection (MOI) of 1. After approximately 1 hour, fresh medium alone or containing the appropriate concentrations of 2′FL 3′SL, or LNnT is added to the appropriate wells, and the cells are incubated for 48 hours at 37° C. in 5% CO2. On day 3, supernatants and cell lysates are collected separately, aliquotted and stored frozen at −70° C. for later analysis. Cell lysates are analyzed by TaqMan qRTPCR to assess viral replication through measurement of RSV NS1 copy numbers.

[5] = tested on: H1N1 influenza A virus (IAV); assay: H1N1 influenza A virus replication (IAV M gene copy numbers) in 16HBE cells (Example 43); assay type: cell-based; conditions: 16HBE lung epithelial cells; MOI 0.01; FIG. 16
[6] = tested on: monocyte-derived cytokines; assay: Monocyte-derived cytokines in peripheral blood mononuclear cells (Example 39); assay type: cell-based, human
Protocol: as §1, §2

[7] = tested on: H1N1 influenza virus; assay type: cell-based; conditions: at a concentration of 1 mg/mL
[8] = tested on: H1N1 influenza virus; assay type: cell-based; conditions: 10 mg/mL; MDCK cells; FIG. 1
[9] = tested on: H1N1 influenza A virus (IAV); assay: H1N1 influenza A virus replication (IAV M gene copy numbers) in Calu3 cells (Example 43); assay type: cell-based; conditions: Calu3 lung epithelial cells; MOI 0.01; FIG. 17
[10] = tested on: interferon-inducible protein 10 (IP-10); assay: IP-10 in RSV-infected PBMCs, 6′SL (Example 44); assay type: cell-based, human; conditions: 0.1 mg/mL to 1 mg/mL; RSV MOI 1.0; 4 donors; 48 hours; FIG. 18
Protocol: Specifically, 6′SL was added individually at concentrations of 0.1 mg/mL, 0.2 mg/mL, 0.5 mg/mL or 1.0 mg/mL to fresh peripheral blood mononuclear cells (PCMBs) and incubated at 37° C. in 5% CO2 to pretreat the cells for approximately 24 hours. After approximately 24 hours, some variables are then incubated with RSV at a multiplicity of infection (MOI) of 1.0 for approximately 1 hour at 37° C. in 5% in CO2. Uninfected control variables are incubated with medium for approximately 1 hour at 37° C. in 5% CO2. After approximately 1 hour, fresh medium alone or containing the appropriate concentrations of 6′SL is added to the appropriate variables, and the PBMCs are incubated for 48 hours at 37° C. in 5% CO2. Supernatants are collected at 48 hours post-infection. Cytokines are measured in supernatants for each variable at 48 hours to assess the effects of HMOs on the early immune response to RSV.
Interferon-inducible Protein 10 (IP-10, also known as CXCL10) is a CXC chemokine that attracts, binds to and activates the CXCR3 receptor on Natural Killer Cells and Memory T cells. IP-10 is expressed by monocytes and a number of other cells, and is induced by interferon. A positive correlation exists between RSV clinical disease severity in children (as measured by: length of hospital stay, fever, and number of days supplemental O2 was required) and serum IP-10. […]

[11] = in the presence or absence of the virus

Compound	IL-10 concentration [1]	IP-10 level compared with uninfected controls ([2]; RSV MOI 0.1)	IP-10 in virus-infected variables ([2]; RSV MOI 0.1)	reduction of inflammation caused by RSV [2]	IL-10 response, Donor A and Donor E [3]	concentrations that decrease viral load or inhibit RSV replication (RSV NS1 copies) [4]	concentrations that decrease viral load or inhibit IAV replication (IAV M gene copies) [5]	production of monocyte-derived cytokines (IL-10, MIP-1β, Interferon-γ, IL-8, IL-1α, IL-1β, IL-1ra) [6, 11]	RSV-induced IP-10, Donor B ([2]; RSV MOI 0.1, Donor B)	RSV-induced IP-10, Donor E ([2]; RSV MOI 0.1, Donor E)	IL-10 response, Donor B and Donor E [3]	anti-viral activity against H1N1 influenza virus [7]	production of monocyte-derived cytokines (MIP-1β, Interferon-γ, IL-8, IL-1ra) [6, 11]	inhibition of virus infectivity [8]	concentrations that decrease viral load or inhibit IAV replication (IAV M gene copies) [9]	IP-10 in RSV infected PBMCs [10]	production of monocyte-derived cytokines (IL-10, MIP-1β, Interferon-γ, IL-8, IL-1α, IL-1β, IL-1ra) ([6]; in the absence of the virus)
CC(=O)N[C@H]1[C@H](O[C@H]2[C@@H](O)[C@@H](CO)O[C@@H](O[C@H]3[C@H](O)[C@@H](O)C(O)O[C@@H]3CO)[C@@H]2O)O[C@H](CO)[C@@H](O[C@@H]2O[C@H](CO)[C@H](O)[C@H](O)[C@H]2O)[C@@H]1O (mixture of isomers) [LNnT, lacto-N-neotetraose]	increases IL-10 concentration in a dose-dependent manner	reduce IP-10 to levels found in uninfected controls	clearly downregulates IP-10	effective in reducing inflammation caused by RSV	clear dose-dependent increase in IL-10 response	≥ 10 µg/mL	≥ 1 µg/mL	immunomodulatory	–	–	–	–	–	–	–	–	–
CC(=O)N[C@H]1[C@H]([C@H](O)[C@H](O)CO)O[C@@](O[C@H]2[C@@H](O)[C@@H](CO)O[C@@H](O[C@H]3[C@H](O)[C@@H](O)C(O)O[C@@H]3CO)[C@@H]2O)(C(=O)O)C[C@@H]1O (stereo partly drawn) [3′SL, 3′-sialyllactose]	–	–	–	effective in reducing inflammation caused by RSV	–	–	–	–	not effective	downregulates RSV-induced IP-10	do not increase IL-10	inhibited	immunomodulatory	–	–	–	–
CC(=O)N[C@H]1[C@H]([C@H](O)[C@H](O)CO)O[C@@](OC[C@H]2O[C@@H](O[C@H]3[C@H](O)[C@@H](O)[C@H](O)O[C@@H]3CO)[C@H](O)[C@@H](O)[C@H]2O)(C(=O)O)C[C@@H]1O [6′SL, 6′-sialyllactose]	–	reduce IP-10 to levels found in uninfected controls	clearly downregulates IP-10	effective in reducing inflammation caused by RSV	–	–	–	–	–	–	clear dose-dependent increase in IL-10 response	–	–	approximately 60%	≥ 10 µg/mL	dose-dependent downregulation of IP-10	immunomodulatory
OC[C@H]1O[C@@H](O[C@H]2[C@H](O)[C@@H](O)C(O)O[C@@H]2CO)[C@H](O)[C@@H](O)[C@H]1O (stereo partly drawn) [lactose, Lactose, reference compound]	–	–	–	–	do not increase IL-10	–	–	–	–	–	do not increase IL-10	–	–	–	–	–	–
